pKi: −log10 of the molar value. Values joined by “and” are separate entries in the source; they are usually repeats but may differ in a detail not shown here. Equal entries are not always repeated. Where two headings read alike, the source gives them in different places.
Assays:
[1] = Preliminary single oral dose of tamoxifen in hCYP2D6 mice, blood metabolite concentrations; type: in vivo; conditions: single 15-mg/kg oral dose of tamoxifen; for Cmax: hCYP2D6 (CYP2D6-humanized mouse line), mouse, blood, preliminary, data not shown
[2] = parameters: method as in Chang et al., 2016; conditions: hPXR/hCAR/h3A4/3A7/2D6 mice, single dose of 20 mg/kg tamoxifen; ref Chang et al., 2016; cited from earlier work
estrogen receptor (ER) = test system: estrogen receptor (ER); parameters: method as in Johnson et al., 2004; conditions: ref Johnson et al., 2004; cited from earlier work
[3] = Endoxifen formation from NDT in Cyp2dKO mouse liver microsomes; type: in vitro ADME; conditions: 5 µM NDT as substrate
Protocol: (§1) All in vitro analyses were carried out in 100 mM potassium phosphate buffer, pH 7.4, containing 3.3 mM MgCl2, with agitation at 400 rpm at 37°C on a thermoshaker. All samples were handled in amber tubes under conditions of subdued light for the duration of the procedure. […] All subsequent assays were carried out under the same conditions, irrespective of the microsome source, with 5 µM N-desmethyltamoxifen (NDT) as substrate. […] Solvent (methanol) concentrations were 0.2% or lower in all incubations.

CYP1A2 = test: Correlation of NDT hydroxylation with P450 probe substrate metabolism in panel of 13 HLMs (1A2); type: in vitro ADME, human; conditions: 1A2, Phenacetin O-deethylation
Protocol: as §1
(§2) Spearman’s rank correlations and inhibition parameters of ADs were calculated using GraphPad Prism software (version 6; GraphPad Inc., La Jolla, CA).

CYP2A6 = test: Correlation of NDT hydroxylation with P450 probe substrate metabolism in panel of 13 HLMs (2A6); type: in vitro ADME, human; conditions: 2A6, Coumarin 7-hydroxylation
Protocol: as §1, §2

CYP2B6 = test: Correlation of NDT hydroxylation with P450 probe substrate metabolism in panel of 13 HLMs (2B6); type: in vitro ADME, human; conditions: 2B6, S-mephenytoin N-demethylation
Protocol: as §1, §2

CYP2C8 = test: Correlation of NDT hydroxylation with P450 probe substrate metabolism in panel of 13 HLMs (2C8); type: in vitro ADME, human; conditions: 2C8, Paclitaxel 6α-hydroxylation
Protocol: as §1, §2

CYP2C9 = test: Correlation of NDT hydroxylation with P450 probe substrate metabolism in panel of 13 HLMs (2C9); type: in vitro ADME, human; conditions: 2C9, Diclofenac 4′-hydroxylation
Protocol: (§3) All in vitro analyses were carried out in 100 mM potassium phosphate buffer, pH 7.4, containing 3.3 mM MgCl2, with agitation at 400 rpm at 37°C on a thermoshaker. All samples were handled in amber tubes under conditions of subdued light for the duration of the procedure. […] Assays to determine the apparent kinetic parameters of endoxifen formation in hCYP2D6 mouse liver microsomes (MLMs) were performed in triplicate under conditions of linearity for time (6 minutes) and hCYP2D6 protein (0.0625 mg/ml). All subsequent assays were carried out under the same conditions, irrespective of the microsome source, with 5 µM N-desmethyltamoxifen (NDT) as substrate. […] Solvent (methanol) concentrations were 0.2% or lower in all incubations.
as §2

CYP2C19 = test: Correlation of NDT hydroxylation with P450 probe substrate metabolism in panel of 13 HLMs (2C19); type: in vitro ADME, human; conditions: 2C19, S-mephenytoin 4′-hydroxylation
Protocol: as §3, §2

CYP2E1 = test: Correlation of NDT hydroxylation with P450 probe substrate metabolism in panel of 13 HLMs (2E1); type: in vitro ADME, human; conditions: 2E1, Chlorzoxazone 6-hydroxylation
Protocol: as §3, §2

CYP3A4 = test: Correlation of NDT hydroxylation with P450 probe substrate metabolism in panel of 13 HLMs (3A4); type: in vitro ADME, human; conditions: 3A4, Testosterone 6β-hydroxylation
Protocol: as §1, §2

[4] = Preliminary tolerability of single doses of NDT in mice; type: in vivo; conditions: single doses of NDT required to achieve about 200 ng/ml, data not shown
[5] = 2013, Jager et al., 2014, cited from earlier work
CYP2D6 [6] = target: T1, CYP2D6 (Homo sapiens, UniProt P10635); test: Apparent kinetic parameters of endoxifen formation from NDT in hCYP2D6 mouse liver microsomes; type: in vitro ADME; parameters: Assays to determine the apparent kinetic parameters of endoxifen formation in hCYP2D6 mouse liver microsomes (MLMs) were performed in triplicate; tissue Taconic (animals); host or cells: liver microsomes pooled from four hCYP2D6 (CYP2D6-humanized, murine Cyp2d deleted) mice; conditions: hCYP2D6 MLMs 0.0625 mg/ml, 6 min, substrate inhibition model
T1 sequence (P10635 whole entry): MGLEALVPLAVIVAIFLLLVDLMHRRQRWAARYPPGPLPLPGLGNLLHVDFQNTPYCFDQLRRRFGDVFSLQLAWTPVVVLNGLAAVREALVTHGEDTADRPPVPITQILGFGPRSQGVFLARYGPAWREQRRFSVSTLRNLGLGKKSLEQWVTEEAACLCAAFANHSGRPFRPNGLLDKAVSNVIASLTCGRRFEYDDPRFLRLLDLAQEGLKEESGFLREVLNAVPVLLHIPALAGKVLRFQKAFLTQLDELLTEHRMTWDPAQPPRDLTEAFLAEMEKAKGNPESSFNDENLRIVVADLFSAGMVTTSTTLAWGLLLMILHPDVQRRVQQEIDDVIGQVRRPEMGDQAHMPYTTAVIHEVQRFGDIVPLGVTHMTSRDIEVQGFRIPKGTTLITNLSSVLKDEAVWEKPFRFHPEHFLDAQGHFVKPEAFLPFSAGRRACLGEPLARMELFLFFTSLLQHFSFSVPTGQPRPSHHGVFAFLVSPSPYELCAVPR
Protocol: as §3, §2

CYP2D6 [7] = target: T1, CYP2D6; test: Correlation of NDT hydroxylation with P450 probe substrate metabolism in panel of 13 HLMs (2D6); type: in vitro ADME; parameters: Assays to determine the apparent kinetic parameters of endoxifen formation in hCYP2D6 mouse liver microsomes (MLMs) were performed in triplicate; tissue Taconic (animals); host or cells: liver microsomes pooled from four hCYP2D6 (CYP2D6-humanized, murine Cyp2d deleted) mice; conditions: 2D6, Bufuralol 1′-hydroxylation
Protocol: as §3, §2

CYP2D6 [8] = target: T1, CYP2D6; parameters: Assays to determine the apparent kinetic parameters of endoxifen formation in hCYP2D6 mouse liver microsomes (MLMs) were performed in triplicate; tissue Taconic (animals); host or cells: liver microsomes pooled from four hCYP2D6 (CYP2D6-humanized, murine Cyp2d deleted) mice; method as in Desta et al. (2004); conditions: two individual HLM preparations; ref Desta et al. (2004); read-out: Km (endoxifen formation); cited from earlier work
CYP2D6 [9] = target: T1, CYP2D6; test: biochemical
Protocol: as §1, §2

CYP2D6 [10] = target: T1, CYP2D6; conditions: female, hCYP2D6 (mice humanized for CYP2D6), mouse, in vivo
Protocol: All animal work was carried out on 8- to 12-week-old female mice. […] NDT was suspended in corn oil at 2 mg/ml for oral administration at 10 mg/kg (5 µl/g body weight). For sample collection for pharmacokinetic (PK) analysis, 10 µl whole blood was withdrawn from the tail vein at the indicated time points. Samples were immediately added to a tube containing heparin solution (10 µl, 15 IU/ml) and stored at −20°C until processing.
In vivo PK samples were thawed by the addition of 70 µl acetonitrile containing the internal standard (tamoxifen-d5 at 0.2 µg/ml). After incubation on ice for 10 minutes, in vivo and in vitro samples were vortexed (5 seconds) and centrifuged for 10 minutes at 16,000g. The supernatant was added to 96-well plates for liquid chromatography (LC)–tandem mass spectrometry (MS/MS).
Analysis of in vitro incubation and in vivo blood PK samples was carried out on a Waters Acquity ultra-performance LC system and a Micromass Quattro Premier mass spectrometer (both Micromass, Manchester, UK). […] Acquired data were analyzed in QuanLynx (Waters, Milford, MA) relative to analyte standard curves spanning the range of concentrations under study.
Plasma levels of both of these compounds, and of endoxifen, were monitored over the following 48-hour period.

E0771 cells = test: Estradiol dependence of E0771 cell growth in vitro; type: cell-based, mouse; conditions: Supplemental Fig. 2
[11] = parameters: method as in gsk-clinicalstudyregister.com study 29060/474; conditions: patients receiving 40 mg/d paroxetine; ref gsk-clinicalstudyregister.com study 29060/474; cited from earlier work
murine plasma proteins = test system: murine plasma proteins; parameters: method as in van Harten, 1993; Qin et al., 2016; conditions: mouse plasma; ref van Harten, 1993; Qin et al., 2016; cited from earlier work
CYP2D6 [12] = target: T1, CYP2D6; conditions: read-out: Ki for inhibition of dextromethorphan O-demethylation; HLMs; ref Bertelsen et al. (2003); cited from earlier work

Question: For `CC/C(=C(\c1ccc(O)cc1)c1ccc(OCCN(C)C)cc1)c1ccccc1` [4-HT, 4-hydroxytamoxifen], which Cmax [1] is on record?
Answer: 235 ng/mL

Question: And the “blood concentration of 4-HT relative to NDT” value [1]?
Answer: 2.7 fold

Question: And the “4-HT levels relative to NDT” value [2]?
Answer: 5.4 fold

Question: What about the Cmax [2] of the same compound?
Answer: 248 ng/mL

Question: And the “potency as estrogen receptor (ER) antagonist relative to the parent compound (tamoxifen)” value (estrogen receptor (ER))?
Answer: up to 100 times

Question: Which results are given for `CC/C(=C(\c1ccccc1)c1ccc(OCCNC)cc1)c1ccccc1` [NDT, N-desmethyltamoxifen]?
Answer: endoxifen formation by Cyp2dKO liver microsomes [3]: did not produce detectable levels; SRCC with NDT Hydroxylation (CYP1A2): −0.289; SRCC with NDT Hydroxylation (CYP2A6): 0.161; SRCC with NDT Hydroxylation (CYP2B6): 0.572; SRCC with NDT Hydroxylation (CYP2C8): 0.380; SRCC with NDT Hydroxylation (CYP2C9): 0.526; SRCC with NDT Hydroxylation (CYP2C19): −0.220; SRCC with NDT Hydroxylation (CYP2E1): 0.311; SRCC with NDT Hydroxylation (CYP3A4): −0.005; Cmax [1]: 86 ng/mL; tolerability of single doses [4]: not well tolerated by all animals; Cmax [2]: 46 ng/mL; mean steady-state concentration in patient serum ([5]; patients on tamoxifen, ref Stearns et al., 2003, Madlensky et al., 2011, Lien et al.): approximately 200 ng/ml; average blood plasma steady-state Cmax ([5]; patients receiving 20 mg tamoxifen per day, ref Lien et al.): approximately 200 ng/ml; KS1 (apparent, endoxifen formation from NDT) (CYP2D6 [6]): 5.1 ± 0.4 µM; KS2 (apparent, endoxifen formation from NDT) (CYP2D6 [6]): 3.9 ± 0.3 µM; SRCC with NDT Hydroxylation (CYP2D6 [7]): 0.698; Km (CYP2D6 [8]): 4.5 µM and 5.9 µM

Question: With `CN(C)CCC=C1c2ccccc2CCc2ccccc21` [amitriptyline] as the compound, how does the pKi (CYP2D6 [9]) read?
Answer: 6.14

Question: Which “endoxifen levels in hCYP2D6 mice relative to human subjects” value (CYP2D6 [10]) does the source give for `CC/C(=C(\c1ccc(O)cc1)c1ccc(OCCNC)cc1)c1ccccc1` [endoxifen, 4-hydroxy-N-desmethyltamoxifen] here?
Answer: 2.5-13 fold

Question: What about the “potency as estrogen receptor (ER) antagonist relative to the parent compound (tamoxifen)” value (estrogen receptor (ER)) of the same compound?
Answer: up to 100 times

Question: With `C[C@]12CC[C@@H]3c4ccc(O)cc4CC[C@H]3[C@@H]1CC[C@@H]2O` [estradiol] as the compound, how does the “dependence of E0771 cell growth on estradiol” value (E0771 cells) read?
Answer: no dependence whatsoever

Question: Which “steady-state Cmax” value [11] does the source give for `Fc1ccc([C@@H]2CCNC[C@H]2COc2ccc3c(c2)OCO3)cc1` [paroxetine] here?
Answer: approximately 150 ng/ml

Question: And the “binding with murine plasma proteins” value (murine plasma proteins)?
Answer: > 96%

Question: And the pKi (CYP2D6 [12])?
Answer: 6.44

Reference: publication PMC5193068, “Application of Mice Humanized for CYP2D6 to the Study of Tamoxifen Metabolism and Drug–Drug Interaction with Antidepressants” (Drug Metabolism and Disposition, 2017)
